According to the supplement of paper PMC11208160:

Experiment: recombinant UMI read abundance after kanamycin selection (control-corrected) (log10(CPM+1)); higher = more efficient recombination; extreme values may be limits of the assay; sequences stand for … in AGTGCAGAGAAAATCGGCCAGTTTTCTCTGCCTGCAGTCCGCATGCCGTGGGACCCCTTGGGTTCTAACCTGTTGCCTAGATTTATGCAGCGGACTGCCTTTCTCCCAAAGTGATAAACCGG…AGGTTGGTTTCACT; site = the 11-nt donor
In short: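 Two replicates each of selected and unselected plating were used in this pooled Escherichia coli screen of donor and donor-binding-loop pairs for the IS621 bridge recombinase. Selection was with IPTG (0.07 mM) and kanamycin. Counts of recombinant UMIs, amplified across the donor–target junction, were converted to CPM, averaged, scaled by control-derived factors and reported as log10(CPM+1).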
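Further: IS621 bridge recombinase in Escherichia coli cells against a fixed T5 target plasmid.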

| Sequence | recombinant UMI read abundance (log10) |
| --- | --- |
| CTGGAAACATGGACCGGTTTTCCCGGTAATCCGTATTTGCA (site CTGGAAGCTTG) | 1.51 |
| CTGGAAACATGGACCGGTTTTCCCGGTAATCCGTATTTGCA (site CTGGAATCTTG) | 1.21 |
| CTGGAAACATGGACCGGTTTTCCCGGTAATCCGTATTTGCA (site CTGGACACTTG) | 0.00329 |
| CTGGAAACATGGACCGGTTTTCCCGGTAATCCGTATTTGCA (site CTGGAGACTTG) | 1.43 |
| CTGGAAACATGGACCGGTTTTCCCGGTAATCCGTATTTGCA (site CTGGATACTTG) | 0.526 |
| CTGGAAACATGGACCGGTTTTCCCGGTAATCCGTATTTGCA (site CTGGCAACTTG) | 0.416 |
| CTGGAAACATGGACCGGTTTTCCCGGTAATCCGTATTTGCA (site CTGGGAACTTG) | 0.596 |
| CTGGAAACATGGACCGGTTTTCCCGGTAATCCGTATTTGCA (site CTGGTAACTTG) | 0.00624 |
| CTGGAAACATGGACCGGTTTTCCCGGTAATCCGTATTTGCA (site CTGTAAACTTG) | 0.123 |
| CTGGAAACATGGACCGGTTTTCCCGGTAATCCGTATTTGCA (site CTTGAAACTTG) | 0.578 |
| CTGGAAACATGGACCGGTTTTCCCGGTAATCCGTATTTGCA (site GTGGAAACTTG) | 0.00967 |
| CTGGAAACATGGACCGGTTTTCCCGGTAATCCGTATTTGCA (site TTGGAAACTTG) | 0 |
| CTGGAAACATGGACCGGTTTTCCCGGTAATCCGTATTTGCC (site CTGGAAACTAG) | 0 |
| CTGGAAACATGGACCGGTTTTCCCGGTAATCCGTATTTGCC (site CTGGAAACTCG) | 0 |
| CTGGAAACATGGACCGGTTTTCCCGGTAATCCGTATTTGCC (site CTGGAAACTGG) | 0 |
| CTGGAAACATGGACCGGTTTTCCCGGTAATCCGTATTTGCC (site CTGGAAACTTG) | 0.22 |
| CTGGAAACATGGACCGGTTTTCCCGGTAATCCGTATTTGCG (site CTGGAAACTAG) | 0 |
| CTGGAAACATGGACCGGTTTTCCCGGTAATCCGTATTTGCG (site CTGGAAACTCG) | 2.37 |
| CTGGAAACATGGACCGGTTTTCCCGGTAATCCGTATTTGCG (site CTGGAAACTGG) | 0 |
| CTGGAAACATGGACCGGTTTTCCCGGTAATCCGTATTTGCG (site CTGGAAACTTG) | 1.72 |
| CTGGAAACATGGACCGGTTTTCCCGGTAATCCGTATTTGGT (site CTGGAAACTAC) | 1.92 |
| CTGGAATCATGGACCGGTTTTCCCGGTAATCCGTATTTGCA (site CTGGAAACTTG) | 1.56 |
| CTGGAATCATGGACCGGTTTTCCCGGTAATCCGTATTTGCA (site CTGGAACCTTG) | 0 |
| CTGGAATCATGGACCGGTTTTCCCGGTAATCCGTATTTGCA (site CTGGAAGCTTG) | 0 |
| CTGGAATCATGGACCGGTTTTCCCGGTAATCCGTATTTGCA (site CTGGAATCTTG) | 2.19 |

| Sequence | recombinant UMI read abundance (log10) |
| --- | --- |
| CTGGCATCATGGACCGGTTTTCCCGGTAATCCGTATTTGGC (site CTGGCATCTGC) | 2.75 |
| CTGGCGTCATGGACCGGTTTTCCCGGTAATCCGTATTTGAG (site CTGGCGTCTCT) | 0.929 |
| CTGGGAACATGGACCGGTTTTCCCGGTAATCCGTATTTGCA (site CTGGAAACTTG) | 1.87 |
| CTGGGAACATGGACCGGTTTTCCCGGTAATCCGTATTTGCA (site CTGGCAACTTG) | 0.789 |
| CTGGGAACATGGACCGGTTTTCCCGGTAATCCGTATTTGCA (site CTGGGAACTTG) | 2.39 |
| CTGGGAACATGGACCGGTTTTCCCGGTAATCCGTATTTGCA (site CTGGTAACTTG) | 0.262 |
| CTGGGCGCATGGACCGGTTTTCCCGGTAATCCGTATTTGCA (site AATACGCCTAT) | 0.0174 |
| CTGGTATCATGGACCGGTTTTCCCGGTAATCCGTATTTGCC (site CTAGTATCTGT) | 0 |
| CTGGTATCATGGACCGGTTTTCCCGGTAATCCGTATTTGCC (site CTGGTATCTGG) | 0 |
| CTGGTTACATGGACCGGTTTTCCCGGTAATCCGTATTTGGC (site CTGGTTACTGC) | 1.74 |
| CTGTACGCATGGACCGGTTTTCCCGGTAATCCGTATTTGGT (site CTGTACGCTAC) | 1.26 |
| CTGTAGCCATGGACCGGTTTTCCCGGTAATCCGTATTTGAT (site CTGTAGCCTAT) | 0.748 |
| CTGTAGGCATGGACCGGTTTTCCCGGTAATCCGTATTTGGC (site ATGTAGGCTGC) | 0.626 |
| CTGTAGGCATGGACCGGTTTTCCCGGTAATCCGTATTTGGC (site CTGTAGGCTGC) | 2.01 |
| CTGTAGGCATGGACCGGTTTTCCCGGTAATCCGTATTTGGC (site GTGTAGGCTGC) | 0 |
| CTGTAGGCATGGACCGGTTTTCCCGGTAATCCGTATTTGGC (site TTGTAGGCTGC) | 0 |
| CTGTAGGCATGGACCGGTTTTCCCGGTAATCCGTATTTGGG (site CTGTAGGCTCC) | 0.27 |
| CTGTAGTCATGGACCGGTTTTCCCGGTAATCCGTATTTGTC (site CTGTAGTCTGA) | 3.24 |
| CTGTCGCCATGGACCGGTTTTCCCGGTAATCCGTATTTGCG (site CTGTCGCCTCG) | 0.00856 |
| CTGTGCGCATGGACCGGTTTTCCCGGTAATCCGTATTTGAC (site TCCCTGTCTTC) | 0.0087 |
| CTGTTACCATGGACCGGTTTTCCCGGTAATCCGTATTTGCT (site CTGATACCTAG) | 0 |
| CTGTTACCATGGACCGGTTTTCCCGGTAATCCGTATTTGCT (site CTGCTACCTAG) | 0.146 |
| CTGTTACCATGGACCGGTTTTCCCGGTAATCCGTATTTGCT (site CTGGTACCTAG) | 0 |
| CTGTTACCATGGACCGGTTTTCCCGGTAATCCGTATTTGCT (site CTGTTACCTAG) | 0 |
| CTGTTTACATGGACCGGTTTTCCCGGTAATCCGTATTTGCT (site CAGTTTACTAG) | 0.405 |

| Sequence | recombinant UMI read abundance (log10) |
| --- | --- |
| CTGTTTACATGGACCGGTTTTCCCGGTAATCCGTATTTGCT (site CCGTTTACTAG) | 1.15 |
| CTGTTTACATGGACCGGTTTTCCCGGTAATCCGTATTTGCT (site CGGTTTACTAG) | 0 |
| CTGTTTACATGGACCGGTTTTCCCGGTAATCCGTATTTGCT (site CTGTTTACTAG) | 2.02 |
| CTTAGCTCATGGACCGGTTTTCCCGGTAATCCGTATTTGCT (site CTTAGCTCTAG) | 0 |
| CTTCAGCCATGGACCGGTTTTCCCGGTAATCCGTATTTGGA (site CTTCAGCCTTC) | 0 |
| CTTCCCTCATGGACCGGTTTTCCCGGTAATCCGTATTTGTA (site CTTCACTCTTA) | 0.00365 |
| CTTCCCTCATGGACCGGTTTTCCCGGTAATCCGTATTTGTA (site CTTCCCTCTTA) | 2.49 |
| CTTCCCTCATGGACCGGTTTTCCCGGTAATCCGTATTTGTA (site CTTCGCTCTTA) | 0.00376 |
| CTTCCCTCATGGACCGGTTTTCCCGGTAATCCGTATTTGTA (site CTTCTCTCTTA) | 0.434 |
| CTTCTAACATGGACCGGTTTTCCCGGTAATCCGTATTTGCG (site CTTCTAACTCG) | 0.213 |
| CTTCTCGCATGGACCGGTTTTCCCGGTAATCCGTATTTGTA (site CTTCTCACTTA) | 0.459 |
| CTTCTCGCATGGACCGGTTTTCCCGGTAATCCGTATTTGTA (site CTTCTCCCTTA) | 0.0264 |
| CTTCTCGCATGGACCGGTTTTCCCGGTAATCCGTATTTGTA (site CTTCTCGCTTA) | 1.29 |
| CTTCTCGCATGGACCGGTTTTCCCGGTAATCCGTATTTGTA (site CTTCTCTCTTA) | 0.0056 |
| CTTCTCTCATGGACCGGTTTTCCCGGTAATCCGTATTTGGA (site CTTCTCTCTTA) | 0.0983 |
| CTTCTCTCATGGACCGGTTTTCCCGGTAATCCGTATTTGGA (site CTTCTCTCTTC) | 1.35 |
| CTTCTCTCATGGACCGGTTTTCCCGGTAATCCGTATTTGGA (site CTTCTCTCTTG) | 0 |
| CTTCTCTCATGGACCGGTTTTCCCGGTAATCCGTATTTGGA (site CTTCTCTCTTT) | 0.925 |
| CTTCTCTCATGGACCGGTTTTCCCGGTAATCCGTATTTGTC (site CTTCTCTCTAA) | 1.6 |
| CTTCTCTCATGGACCGGTTTTCCCGGTAATCCGTATTTGTC (site CTTCTCTCTCA) | 0.0104 |
| CTTCTCTCATGGACCGGTTTTCCCGGTAATCCGTATTTGTC (site CTTCTCTCTGA) | 2.45 |
| CTTCTCTCATGGACCGGTTTTCCCGGTAATCCGTATTTGTC (site CTTCTCTCTTA) | 0.836 |
| CTTGAAACATGGACCGGTTTTCCCGGTAATCCGTATTTGCA (site CTAGAAACTTG) | 1.31 |
| CTTGAAACATGGACCGGTTTTCCCGGTAATCCGTATTTGCA (site CTCGAAACTTG) | 0.00453 |
| CTTGAAACATGGACCGGTTTTCCCGGTAATCCGTATTTGCA (site CTGGAAACTTG) | 0.538 |
